Laboratory results reported in US9593197B2, “Trigger-responsive chain-shattering polymers” (THE BOARD OF TRUSTEES OF THE UNIVERSITY OF ILLINOIS, priority 2012, dated 2017).

Experiment: MTT cytotoxicity assay before and after UV treatment
Settings: human, HeLa cells

Compound CC[C@@]1(O)C(=O)OCc2c1cc1n(c2=O)Cc2cc3cc(O)ccc3nc2-1 [HCPT, 10-hydroxycamptothecin] has an IC50 of 6.2 to 7.32 µM.
